Laboratory results from patent US20030073117A1, “Novel protein and gene encoding the protein” (Daiichi Pharmaceutical Co., Ltd., priority 2000, published 2003).

Columns and labels:
SAC1 [1] = target: T1, SAC1 (Mus musculus, UniProt Q9EPK8); assay: Single channel analysis (patch clamp) of SAC1 expression cells under negative pressure; type: cell-based
T1 construct: the region containing the full length was amplified by PCR using primer set (A13st1 and mA13end1); expressed in transfected cells; host or cells: CHO cells, transient co-transfection of SAC1 in pCMV-SPORT with pEGFP-N1 as a separate marker plasmid
T1 sequence (Q9EPK8 whole entry): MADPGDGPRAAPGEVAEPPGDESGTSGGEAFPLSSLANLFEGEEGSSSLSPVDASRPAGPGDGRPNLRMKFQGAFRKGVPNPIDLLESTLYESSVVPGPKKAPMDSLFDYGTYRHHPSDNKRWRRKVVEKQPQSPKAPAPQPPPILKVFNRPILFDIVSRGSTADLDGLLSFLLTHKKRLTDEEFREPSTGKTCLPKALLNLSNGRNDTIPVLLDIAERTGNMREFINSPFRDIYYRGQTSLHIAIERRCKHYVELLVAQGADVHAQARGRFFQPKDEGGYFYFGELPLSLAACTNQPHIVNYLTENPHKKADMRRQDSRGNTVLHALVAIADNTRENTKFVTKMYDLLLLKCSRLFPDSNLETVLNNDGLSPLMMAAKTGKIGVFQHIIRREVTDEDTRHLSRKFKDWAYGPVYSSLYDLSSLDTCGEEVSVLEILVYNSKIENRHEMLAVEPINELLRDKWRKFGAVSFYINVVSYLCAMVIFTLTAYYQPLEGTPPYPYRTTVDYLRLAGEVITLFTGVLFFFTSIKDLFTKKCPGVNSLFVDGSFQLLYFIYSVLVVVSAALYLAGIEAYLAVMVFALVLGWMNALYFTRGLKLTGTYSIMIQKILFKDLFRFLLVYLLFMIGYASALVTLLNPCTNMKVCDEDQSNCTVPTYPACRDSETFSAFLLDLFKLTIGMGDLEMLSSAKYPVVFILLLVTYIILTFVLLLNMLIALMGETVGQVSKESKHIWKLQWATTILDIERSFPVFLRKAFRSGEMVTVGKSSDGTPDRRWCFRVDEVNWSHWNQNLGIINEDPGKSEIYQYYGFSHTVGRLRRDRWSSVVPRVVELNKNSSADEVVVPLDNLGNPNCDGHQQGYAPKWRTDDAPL
Description: (§1) The plasmid (pEGFP-N1; Clonetech Co.) expressing a green fluorescent protein was used as a marker for transfection. For the transient expression of protein, CHO cells were cultured in a HamF-12 culture medium (Gibco-BRL Co.) supplemented with 10% fetal bovine serum, 100 U/ml penicillin, and 100 μg/ml streptomycin. On the day before transformation, CHO cells (10^5 cells) were seeded to a 35 mm dish in which a cover slip coated with rat tail collagen was placed. […] The electrophysiological test was started after 24 hours and the fluorescence measurement was carried out 48 hours after the transfection.
Patch clamp recordings were carried out according to the method described in a previous paper (Suzuki, M., Sato, J., Kutsuwada, K., Ooki, G. and Imai, M. (1999) J. Biol. Chem. 274, 6330-5). GFP positive cells were visualized by a fluorescence measurement with an emission of 490 nm (CAM 2000 system; Jusco Co., Ltd.). […] In single channel analysis, the current was recorded with an EPC-7 patch clamp amplifier (List-Electronic Co., Ltd.) and stored on a DAT recorder (DAT-200; Sony Corp.) at 10 KHz. […] The data were analyzed using Igor ver. […] To analyze the open probability in the presence of GdCl3, single channel amplitude was set for those without reagent and the mean open probability (Po) was determined by the records during 10 seconds. […]

SAC1 [2] = target: T1, SAC1; assay: Fluorescence measurement (fura-2) of SAC1 expression cells under touch stress; type: cell-based; details: SAC1 expression CHO cells (GFP positive), touched by glass pipette, added Gd^3+; no added Gd^3+ gave 12.8 ± 1.4, control cells 4.5 ± 3.8
Description: as §1, with “placed. On the next day, SAC1 plasmid (1 μg) in PCMV-SPORT (Gibco-BRL Co.) and pEGFP-N1 (1 μg) were added per one transfection to a mixture of serum-free medium (97 μl) and FuGENE6 (Roche, 3 μl) which had been incubated for 5 minutes at room temperature.” for “placed.”
For 2-3 hours prior to start of the test, the transformed cells were incubated with 10 μM fura-2AM (Dojin Co.) dissolved in a serum-free culture medium. GFP fluorescence at 480 nm and fura-2 fluorescence at 360/380 nm were visualized by a manual exchange of dichroic Olympus system mirrors (Merlin Co.). Images for the fluorescence at 480 nm and fluorescence at 360/380 nm were obtained every two seconds. The fluorescence intensity of the objective area was calculated for analysis. […]

[Cl][Gd]([Cl])[Cl] [Gd^3+, GdCl3]
response (mean open probability Po) to negative pressure (SAC1 [1]; 0.5 μM GdCl3 added to the pipette, cell-attached, FIG. 3C): not affected
effect on single channel activated by negative pressure (SAC1 [1]; transformed cells that express SAC1): blocked
change of the fura-2 fluorescence ratio (360 nm/380 nm) on mechanical stimulus (SAC1 [2]): 4.8 ± 1.4 (10)
